# Data: US20050124559A1, “Antimicrobial agent” (priority 2002, published 2005)
# Assays:
# Type in all cases: cell-based
# Mycobacterium smegmatis = experiment: Zone Inhibition Assay; parameters: key: +++=large zone of inhibition; −=no zone of inhibition; details: 3 μL of a 10 μg/mL sample on a filter disc on a lawn of bacteria, arbitrary scale
# Experimental: (§1) Inhibition of various bacteria by compound 1 (n=6, and n=4) are described in Table 2. The biological data were determined by a Zone Inhibition Assay method. The zone of inhibition was measured using an arbitrary scale: (+++=large zone of inhibition, −=no zone of inhibition). Compound 1 (n=6, and n=4) were tested by spotting 3 μL of a 10 μg/mL sample onto a filter disc which was placed on a lawn of bacteria. N.B. Compound 1 (n=8) was used as a positive control.
# Enterococcus faecalis = experiment: Zone Inhibition Assay; parameters: key: +++=large zone of inhibition; −=no zone of inhibition; details: 3 μL of a 10 μg/mL sample on a filter disc on a lawn of bacteria, arbitrary scale
# Experimental: as §1
# Bacillus subtilis = experiment: Zone Inhibition Assay; parameters: key: +++=large zone of inhibition; −=no zone of inhibition; details: 3 μL of a 10 μg/mL sample on a filter disc on a lawn of bacteria, arbitrary scale
# Experimental: as §1
# Staphylococcus aureus [1] = experiment: Zone Inhibition Assay; parameters: key: +++=large zone of inhibition; −=no zone of inhibition; details: 3 μL of a 10 μg/mL sample on a filter disc on a lawn of bacteria, arbitrary scale
# Experimental: as §1
# [2] = test system: Rapid Growing Atypical Mycobacterial Strains; experiment: MIC by BACTEC or Mueller-Hinton agar method
# Experimental: (§2) Inhibition of various bacteria by compound 1 (n=8) is described in Table 1. The biological data were determined by either the BACTEC or Mueller-Hinton agar method and expressed as a minimum inhibitory concentration (MIC).
# [3] = test system: Mycobacterium tuberculosis; experiment: MIC by BACTEC or Mueller-Hinton agar method
# Experimental: as §2
# M. fortuitum = experiment: MIC by BACTEC or Mueller-Hinton agar method
# Experimental: as §2
# Nocardia asteroides = experiment: MIC by BACTEC or Mueller-Hinton agar method
# Experimental: as §2
# Staphylococcus aureus [4] = experiment: MIC by BACTEC or Mueller-Hinton agar method
# Experimental: as §2
# M. abscessus = experiment: MIC by BACTEC or Mueller-Hinton agar method
# Experimental: as §2
# N. nova = experiment: MIC by BACTEC or Mueller-Hinton agar method
# Experimental: as §2
# [5] = test system: S. aureus (Coagulas-negative); experiment: MIC by BACTEC or Mueller-Hinton agar method
# Experimental: as §2
# M. avium intracellulare = experiment: MIC by BACTEC or Mueller-Hinton agar method
# Experimental: as §2
# Enterococci sp. = experiment: MIC by BACTEC or Mueller-Hinton agar method
# Experimental: as §2
Structure (SMILES),Zone of Inhibition (Mycobacterium smegmatis),Zone of Inhibition (Enterococcus faecalis),Zone of Inhibition (Bacillus subtilis),Zone of Inhibition (Staphylococcus aureus [1]),MIC [2] [µg/mL],MIC [3] [µg/mL],MIC (M. fortuitum) [µg/mL],MIC (Nocardia asteroides) [µg/mL],MIC (Staphylococcus aureus [4]) [µg/mL],MIC (M. abscessus) [µg/mL],MIC (N. nova) [µg/mL],MIC [5] [µg/mL],MIC (M. avium intracellulare) [µg/mL],MIC (Enterococci sp.) [µg/mL]
"CCCCCCCCN(CCCCCCCC)S[C@@H]1O[C@@H]([C@H](O)CO)[C@H](O)[C@H]1O [1 (n=6), N,N-Dioctyl-S-(1-thio-β-D-galactofuranosyl)sulfenamide]",+++,+++,+++,+++,,,,,,,,,,
"CCCCCCCCCCN(CCCCCCCCCC)S[C@@H]1O[C@@H]([C@H](O)CO)[C@H](O)[C@H]1O [Compound 1 (n=8), N,N-Didecyl-S-(1-thio-β-D-galactofuranosyl)sulfenamide]",,,,,<5,<5,<5,<5,5 to 50,<5,<5,5 to 50,<5,5 to 50
